Measured values reported in paper PMC10821124, “Dimeric 3,5-Bis(benzylidene)-4-piperidones: Tumor-Selective Cytotoxicity and Structure-Activity Relationships” (Medicines, 2024).

Legend:
[1] = tested on: human tumour cell lines HL-60, HSC-2, HSC-3, HSC-4; test: Cytotoxicity, average over the four human tumour cell lines; type: cell-based; conditions: for CC50: Homo sapiens, average of HL-60, HSC-2, HSC-3, HSC-4, read-out: AVE. CC50, human tumour cell lines; for AVE SI: average of the four SI values; for PSE (potency-selectivity expression): product of reciprocal of average CC50 (neoplastic cells) and average SI times 100; for CC50 values in all four bioassays (range in words): HL-60, HSC-2, HSC-3, HSC-4
Protocol: (§1) Human promyelocytic leukemia [HL-60 (RCB3683)] (purchased from Riken Cell Bank, Tsukuba, Japan) was cultured at 37 °C in RPMI1640 medium (Fujifilm Wako Pure Chemical Co., Osaka, Japan) supplemented with 10% heat (56 °C, 30 min) inactivated FBS (Sigma-Aldrich Inc. St. Louis, MO, USA), 100 U/mL penicillin G, and 100 µg/mL streptomycin sulfate in a humidified 5% CO2 incubator (MCO-170 AICUVD-P, Panasonic Healthcare Co., Ltd., Gunma, Japan). Human oral squamous cell carcinoma (OSCC) cell lines derived from tongue [HSC-2 (RCB1945), HSC-3 (RCB1975), HSC-4 (RCB1902)] (Riken Cell Bank), and human normal oral cells (gingival fibroblasts, HGF; pulp cell, HPC; periodontal ligament fibroblast, HPLF), established from the first premolar extracted tooth in the lower jaw and periodontal tissues of a child, according to the guidelines of Meikai University Ethic Committee (No. A0808), were cultured in DMEM medium (Fujifilm Wako Pure Chemical Co.) supplemented with 10% FBS and antibiotics. The compounds in Series 2–4 were evaluated against HL-60, HSC-2, HSC-3, HSC-4, HGF, HPC, and HPLF cells based on a literature procedure, as described previously. In brief, near confluent cells were incubated in triplicate for 48 h at 37 °C with different concentrations ([…], 6.3, 12.5, 25, 50, 100 µM) of the compounds; then, viable cell numbers were measured using the MTT method. From the dose–response curve, a 50% cytotoxic concentration (CC50) was determined. All samples were dissolved in dimethylsulfoxide (DMSO). The toxicity of DMSO alone was calculated and subtracted. The CC50 values were determined from dose–response curves.

[2] = tested on: human oral squamous cell carcinoma HSC-3 cells; test: Cytotoxicity, MTT method, HSC-3 cells; type: cell-based; conditions: for CC50: Homo sapiens, HSC-3, 48 h, MTT, mean ± SD, read-out: CC50 HSC-3; for SI (selectivity index) HSC-3: average CC50 non-malignant cells / CC50 HSC-3
Protocol: as §1

[3] = Cytotoxicity, MTT method, HPC non-malignant cells; type: cell-based, human; conditions: human, pulp cells (HPC), non-malignant, mean ± SD
Protocol: as §1

[4] = tested on: human oral squamous cell carcinoma HSC-4 cells; test: Cytotoxicity, MTT method, HSC-4 cells; type: cell-based; conditions: for CC50: Homo sapiens, HSC-4, 48 h, MTT, mean ± SD, read-out: CC50 HSC-4; for SI (selectivity index) HSC-4: average CC50 non-malignant cells / CC50 HSC-4
Protocol: as §1

[5] = tested on: human promyelocytic leukemia HL-60 cells; test: Cytotoxicity, MTT method, HL-60 cells; type: cell-based; conditions: for CC50: Homo sapiens, HL-60, 48 h, MTT, mean ± SD, read-out: CC50 HL-60; for SI (selectivity index) HL-60: average CC50 non-malignant cells / CC50 HL-60
Protocol: as §1

[6] = Cytotoxicity, MTT method, HPLF non-malignant cells; type: cell-based, human; conditions: human, periodontal ligament fibroblasts (HPLF), non-malignant, mean ± SD
Protocol: as §1

[7] = Cytotoxicity, average over the three human normal cells; type: cell-based; conditions: human, average of HGF, HPC, HPLF; read-out: AVE CC50, human normal cells
Protocol: as §1

[8] = tested on: human oral squamous cell carcinoma HSC-2 cells; test: Cytotoxicity, MTT method, HSC-2 cells; type: cell-based; conditions: for CC50: Homo sapiens, HSC-2, 48 h, MTT, mean ± SD, read-out: CC50 HSC-2; for SI (selectivity index) HSC-2: average CC50 non-malignant cells / CC50 HSC-2
Protocol: as §1

[9] = Cytotoxicity, MTT method, HGF non-malignant cells; type: cell-based, human; conditions: human, gingival fibroblasts (HGF), non-malignant, mean ± SD
Protocol: as §1

Row | SMILES | CC50 [1] [nM] | AVE SI [1] | PSE (potency-selectivity expression) [1] | CC50 [2] [nM] | SI (selectivity index) HSC-3 [2] | CC50 at 48 h [3] [nM] | CC50 [4] [nM] | SI (selectivity index) HSC-4 [4] | CC50 [5] [nM] | SI (selectivity index) HL-60 [5] | CC50 at 48 h [6] [nM] | CC50 at 48 h [7] [nM] | CC50 [8] [nM] | SI (selectivity index) HSC-2 [8] | CC50 at 48 h [9] [nM] | CC50 values in all four bioassays (range in words) [1]
1 | O=C1/C(=C/c2ccccc2)CN(C(=O)C(=O)N2C/C(=C\c3ccccc3)C(=O)/C(=C/c3ccccc3)C2)C/C1=C\c1ccccc1 [Compound 2a] | 140 | 26.5 | > 100 | 150 ± 22 | 21.7 | 680 ± 73 | 200 ± 11 | 16.3 | 110 ± 9 | 29.6 | 5300 ± 500 | 3260 | 85 ± 13 | 38.4 | 3800 ± 520 | 
2 | O=C1/C(=C/c2ccc(F)cc2)CN(C(=O)C(=O)N2C/C(=C\c3ccc(F)cc3)C(=O)/C(=C/c3ccc(F)cc3)C2)C/C1=C\c1ccc(F)cc1 [Compound 2b] | 40 | 37.3 |  | 66 ± 8 | 22.7 | 1400 ± 110 | 33 ± 9 | 45.5 | 37 ± 17 | 40.5 | 1900 ± 360 | 1500 | 37 ± 9 | 40.5 | 1200 ± 100 | double-digit nanomolar range
3 | O=C1/C(=C/c2ccc(Cl)c(Cl)c2)CN(C(=O)C(=O)N2C/C(=C\c3ccc(Cl)c(Cl)c3)C(=O)/C(=C/c3ccc(Cl)c(Cl)c3)C2)C/C1=C\c1ccc(Cl)c(Cl)c1 [Compound 2d] | 7280 | 4.83 |  | 8400 ± 870 | 4.08 | 23000 ± 3100 | 6400 ± 150 | 5.36 | 8400 ± 17 | 4.08 | 44000 ± 3200 | 34300 | 5900 ± 120 | 5.81 | 36000 ± 3100 | 
4 | Cc1ccc(/C=C2\CN(C(=O)C(=O)N3C/C(=C\c4ccc(C)cc4)C(=O)/C(=C/c4ccc(C)cc4)C3)C/C(=C\c3ccc(C)cc3)C2=O)cc1 [Compound 2e] | 2780 | 18.0 |  | 4300 ± 1100 | 10.5 | 23000 ± 1200 | 2300 ± 250 | 19.6 | 2700 ± 780 | 16.7 | 67000 ± 4500 | 45000 | 1800 ± 250 | 25.0 | 45000 ± 4600 | 
5 | COc1ccc(/C=C2\CN(C(=O)C(=O)N3C/C(=C\c4ccc(OC)c(OC)c4)C(=O)/C(=C/c4ccc(OC)c(OC)c4)C3)C/C(=C\c3ccc(OC)c(OC)c3)C2=O)cc1OC [Compound 2f] | 250 | 57.0 |  | 230 ± 97 | 54.4 | 2400 ± 700 | 160 ± 24 | 78.1 | 190 ± 26 | 65.8 | 11000 ± 980 | 12500 | 420 ± 25 | 29.8 | 24000 ± 1100 | 
6 | COc1cc(/C=C2\CN(C(=O)C(=O)N3C/C(=C\c4cc(OC)c(OC)c(OC)c4)C(=O)/C(=C/c4cc(OC)c(OC)c(OC)c4)C3)C/C(=C\c3cc(OC)c(OC)c(OC)c3)C2=O)cc(OC)c1OC [Compound 2g] | 60 | 11.8 | > 100 | 35 ± 6 | 16.3 | 280 ± 70 | 88 ± 29 | 6.48 | 37 ± 2 | 15.4 | 950 ± 12 | 570 | 63 ± 9 | 9.05 | 470 ± 140 | double-digit nanomolar range
7 | O=C1/C(=C/c2ccccc2)CN(C(=O)CC(=O)N2C/C(=C\c3ccccc3)C(=O)/C(=C/c3ccccc3)C2)C/C1=C\c1ccccc1 [Compound 3a] | 60 | 17.4 |  | 46 ± 26 | 20.0 | 360 ± 100 | 84 ± 5 | 11.0 | 46 ± 9 | 20.0 | 1300 ± 330 | 920 | 50 ± 1 | 18.4 | 1100 ± 10 | double-digit nanomolar range
8 | Cc1ccc(/C=C2\CN(C(=O)CC(=O)N3C/C(=C\c4ccc(C)cc4)C(=O)/C(=C/c4ccc(C)cc4)C3)C/C(=C\c3ccc(C)cc3)C2=O)cc1 [Compound 3e] | 1780 | 14.3 |  | 2200 ± 200 | 11.2 | 19000 ± 2700 | 1900 ± 150 | 13.0 | 1400 ± 150 | 17.6 | 35000 ± 4200 | 24700 | 1600 ± 390 | 15.4 | 20000 ± 1300 | 
9 | COc1ccc(/C=C2\CN(C(=O)CC(=O)N3C/C(=C\c4ccc(OC)c(OC)c4)C(=O)/C(=C/c4ccc(OC)c(OC)c4)C3)C/C(=C\c3ccc(OC)c(OC)c3)C2=O)cc1OC [Compound 3f] | 230 | 7.35 |  | 200 ± 140 | 7.50 | 1600 ± 78 | 128 ± 14 | 11.7 | 260 ± 21 | 5.77 | 1800 ± 50 | 1500 | 340 ± 76 | 4.41 | 1100 ± 84 | 
